pIC50: −log10 of the molar value. In brackets after ≈: the same amount, converted by molar mass. Several values for one entry are separate records, joined by “and”; a condition that tells them apart may be missing. Identical values can stand only once. Like-named read-outs stand apart in the source and are kept apart here. Marks after values point to notes of the source that are not given here.
What was measured:
CLint, H = assay type: in vitro ADME, human; settings: H (first of H, D, R, M)
[1] = test system: CYP isoforms (1A2, 2B6, 2C8, 2C9, 2C19, 2D6, 3A4/5); experiment: Time-dependent CYP inhibition (IC50 shift), CYP isoforms; assay type: in vitro ADME; settings: human liver microsomes, 30 min pre-incubation with or without NADPH
Protocol: Time-dependent CYP inhibition can occur as a result of irreversible interactions of a test compound with a CYP450 enzyme (i.e. mechanism-based inhibition; MBI) or, alternatively, by reversible product inhibition (i.e. whereby the metabolite of the test compound is responsible for inhibition of the CYP). The potential for time-dependent CYP inhibition was assessed using CYP-specific metabolic pathways in human liver microsomes by measuring the formation of metabolites known to be formed by individual CYP isoforms (Table 5) according to the following protocol (probe substrates, metabolites and incubation times):
The assessment of time-dependent inhibition was based on measurement of the “IC50 shift”, whereby the IC50 was measured following pre-incubation of test compound (or reference inhibitor) in the absence or presence of NADPH. A 10-fold dilution step was incorporated following the pre-incubation to minimize reversible product inhibition (by potential metabolites of test compound) such that evidence of time-dependent inhibition is more likely to reflect mechanism-based inhibition. The maximum concentration of test compound in the pre-incubation mixture (containing either 1 or 2 mg/mL microsomal protein and 1.0% v/v DMSO) was 200 μM, and the potential for precipitation of test compound was closely monitored at the time of spiking. […]

[2] = test system: artemisinin-resistant P. falciparum isolate from Cambodia; experiment: Ring-stage survival assay (RSA0-3h); assay type: cell-based; settings: for RSA values ± SEM (survival): 6 h exposure, 66 h post-treatment
Protocol: Agents Chemother. 57:914-923), but with a few modifications in the drug washing procedure to ensure that no residual peroxide was present during the 66 h post-treatment period. Briefly, 0-3 h post-invasion ring stages were adjusted to 1% parasitemia and 2.5% haematocrit by adding uninfected erythrocytes, transferred in a total volume of 1 mL into 48-well plates and exposed for 6 h to a range of concentrations ([…]) of DHA or one of the compounds tested in this study. After 6 h, cultures were transferred to 15 mL conical tubes, centrifuged at 1400 rpm (400 g) for 2 min and carefully washed 2 times with 12 mL of culture medium. […] After washing, blood pellets were resuspended in complete compound-free culture medium, transferred into new wells and cultured for 66 h in standard conditions. Table 8 below presents the Ring-stage survival assay (RSA) values as tested in Wells et al., 2015, supra for compounds of the invention and comparative compounds.

[3] = Solubility in biorelevant media; assay type: physicochemical; settings: PBS, pH 7.4
[4] = test system: chloroquine-resistant (K1) strain of P. falciparum; experiment: In vitro antimalarial activity, K1 strain; assay type: cell-based
Protocol: (§1) The ability of dispiro 1,2,4-trioxolane derivatives according to the invention to show antimalarial efficacy in vitro and in vivo was tested as described in Charman, et al, 2011, PNAS, 108, 4400-4405 against chloroquine-resistant (K1) and chloroquine-sensitive (NF54) strains of P. falciparum in vitro (Vennerstrom et al. 2004, Nature, 430, 900-904).
(§2) The in vivo activity is shown in P. berghei (Pb) infected mice in terms of the percentage of inhibition of parasitemia following compound administration and the number of survival days.

[5] = test system: chloroquine-sensitive (NF54) strain of P. falciparum; experiment: In vitro antimalarial activity, NF54 strain; assay type: cell-based
Protocol: as §1, §2

CLint, D = assay type: in vitro ADME, dog; settings: D (second of H, D, R, M)
CLint, R = assay type: in vitro ADME, rat; settings: R (third of H, D, R, M)
[6] = Solubility in biorelevant media; assay type: physicochemical
Protocol: Compounds were each accurately weighed into individual screw cap polypropylene tubes and media added to give a nominal minimum target compound concentration of 2.2 mg/mL. Samples were vortex mixed and placed in a 37° C. incubator where they were continually mixed on an orbital shaker (IKA® VXR basic Vibrax® orbital shaker) at 600 rpm. Incubation times were 1 hour for fasted state simulated gastric fluid (FaSSGF) and 5 hours for fasted and fed state simulated intestinal fluids (FaSSIF-V2 and FeSSIF-V2 respectively). Sampling was carried out by centrifuging each sample at 10,000 rpm for 3 minutes, transferring 300 μL, aliquots into fresh Eppendorf tubes and centrifuging these tubes again at 10,000 rpm for 3 minutes. Triplicate aliquots of each final supernatant were diluted 20-fold in 50% aqueous methanol, and then further diluted in 50% aqueous acetonitrile to be within an appropriate concentration range for analysis by LC-MS. LC-MS methods and validation data for the analysis of solubility samples are shown in Table 2 below and the media composition is shown in Table 3.

[7] = test system: 7 CYP isoforms (1A2, 2B6, 2C8, 2C9, 2C19, 2D6, 3A4/5); experiment: Cyp inhibition IC50, 7 isoforms, human liver microsomes; assay type: in vitro ADME
Protocol: The assessment of time-dependent inhibition was based on measurement of the “IC50 shift”, whereby the IC50 was measured following pre-incubation of test compound (or reference inhibitor) in the absence or presence of NADPH. A 10-fold dilution step was incorporated following the pre-incubation to minimize reversible product inhibition (by potential metabolites of test compound) such that evidence of time-dependent inhibition is more likely to reflect mechanism-based inhibition. The maximum concentration of test compound in the pre-incubation mixture (containing either 1 or 2 mg/mL microsomal protein and 1.0% v/v DMSO) was 200 μM, and the potential for precipitation of test compound was closely monitored at the time of spiking. […] On this basis, it is assumed that test compounds were fully dissolved at all concentrations in the pre-incubation mixtures. Reference inhibitors (both mechanism-based and reversible inhibitors) were included to validate the assay. […]

P. berghei = experiment: In vivo activity in P. berghei (Pb) infected mice
Protocol: as §1, §2

CLint, M = assay type: in vitro ADME, mouse; settings: M (fourth of H, D, R, M)

SMILES	RSA values ± SEM (survival) ([2]; 49 nM)	RSA values ± SEM (survival) ([2]; 88 nM) [%]	RSA values ± SEM (survival) ([2]; 175 nM) [%]	RSA values ± SEM (survival) ([2]; 350 nM) [%]	RSA values ± SEM (survival) ([2]; 700 nM)	Conc. (solubility) [3]	IC50 K1 [4] [ng/mL]	IC50 NF54 [5] [ng/mL]	Conc. (solubility) ([6]; FaSSGF, 37° C., 1 hour) [µg/mL]	Conc. (solubility) ([6]; FaSSIF-V2, 37° C., 5 hours) [µg/mL]	Conc. (solubility) ([6]; FeSSIF-V2, 37° C., 5 hours) [µg/mL]	% activity (percentage of inhibition of parasitemia) (P. berghei; Pb 1 × 10 mg/kg) [%]	Survival days (P. berghei; Pb 1 × 10 mg/kg) [days]	% activity (percentage of inhibition of parasitemia) (P. berghei; Pb 1 × 30 mg/kg) [%]	Survival days (P. berghei; Pb 1 × 30 mg/kg) [days]	further results
c1cc(C2CCC3(CC2)OOC2(O3)C3CC4CC(C3)CC2C4)ccc1OCCC1CCNCC1 (stereo not drawn) [Compound (2), cis-Adamantane-2-spiro-3′-8′-[4′-[2′-(4′-piperidinyl)ethoxy]phenyl]-1′,2′,4′-trioxaspiro [4.5]decane]	0.76 ± 0.60%	0	0	0	0%	<1^c μg/mL	1.4 (≈ 0.00299 µM)	1.4 (≈ 0.00299 µM)	5.6	293	1632	99.4	13.4	99.5	>30	CLint H (CLint, H): < 7 µL/min/mg; Time Dependent Inhibition [1]: none; growth of the artemisinin-resistant isolate ([2]; 700, 350, 175 and 88 nM): completely inhibiting the growth; CLint D (CLint, D): 9 µL/min/mg; CLint R (CLint, R): < 7 µL/min/mg; pIC50 [7]: < 4.70; CLint M (CLint, M): 16 µL/min/mg
C[C@H]1[C@@H](O)O[C@@H]2O[C@@]3(C)CC[C@H]4[C@H](C)CC[C@@H]1[C@@]24OO3 [DHA, Dihydroartemisinin, reference compound]	74% and 73.5 ± 12.3%	60.03 ± 4.99	47.94 ± 3.88	37.67 ± 3.65	33% and 33.02 ± 4.39%	–	–	–	–	–	–	–	–	–	–	–
c1cc([C@H]2CC[C@]3(CC2)OO[C@]2(O3)C3CC4CC(C3)CC2C4)ccc1OCCN1CCOCC1 [Compound C1, reference compound]	–	0.93 ± 0.93	0.73 ± 1.03	0.73 ± 1.03	0.73 ± 1.03%	–	–	–	79.0	40.6	563	99.5	15.2	98.1	>30	IC50 ([5]; Plasmodium falciparum): 2 ng/mL (≈ 0.00426 µM); solubility at 1 h ([6]; fasted state simulated gastric fluid (FaSSGF), 37 °C, fassgf or other biorelevant, thermodynamic from solid, FaSSGF, 37° C., 1 hour, read-out: Conc. (solubility)): 51.9 µg/mL (≈ 111 µM); solubility at 5 h ([6]; fasted state simulated intestinal fluid (FaSSIF-V2), 37 °C, fassif, thermodynamic from solid, FaSSIF-V2, 37° C., 5 hours, read-out: Conc. (solubility)): 22.3 µg/mL (≈ 47.5 µM); solubility at 5 h ([6]; fed state simulated intestinal fluid (FeSSIF-V2), 37 °C, fessif, thermodynamic from solid, FeSSIF-V2, 37° C., 5 hours, read-out: Conc. (solubility)): 557 µg/mL (≈ 1190 µM)
CC1(C)CC(O)(COc2ccc([C@H]3CC[C@]4(CC3)OOC3(O4)C4CC5CC(C4)CC3C5)cc2)CC(C)(C)N1 (stereo partly drawn) [Compound (1), cis-Adamantane-2-spiro-3′-8′-[4′-[(4′-hydroxy-2′,2′,6′,6′-tetramethyl-4′-piperidinyl)methoxy]phenyl]-1′,2′,4′-trioxaspiro[4.5]decane]	1.29 ± 1.24%	0.16 ± 0.23	0.11 ± 0.08	0	0%	10.6 µg/mL	1.2 (≈ 0.00228 µM)	0.9 (≈ 0.00171 µM)	10.1	1516	>2000	99.1	13.6	99.6	>30	–

From patent US20200377483A1, “NEW ANTI-MALARIAL AGENT” (MMV MEDICINES FOR MALARIA VENTURE, priority 2016, published 2020)
